The text below walks through data of patent US7049313B2, “ATM inhibitors” (Kudos Pharmaceuticals Ltd., priority 2002, dated 2006).

pIC50: −log10 of the molar value. Where only a bound is given, the exact number is not on record here.

This test deals with T1, ATM (Homo sapiens, UniProt Q13315).
T1 construct: ATM protein was immunoprecipitated from HeLa cell nuclear extract; endogenous in cells; host or cells: HeLa cell nuclear extract (immunoprecipitate)
T1 sequence (Q13315 whole entry): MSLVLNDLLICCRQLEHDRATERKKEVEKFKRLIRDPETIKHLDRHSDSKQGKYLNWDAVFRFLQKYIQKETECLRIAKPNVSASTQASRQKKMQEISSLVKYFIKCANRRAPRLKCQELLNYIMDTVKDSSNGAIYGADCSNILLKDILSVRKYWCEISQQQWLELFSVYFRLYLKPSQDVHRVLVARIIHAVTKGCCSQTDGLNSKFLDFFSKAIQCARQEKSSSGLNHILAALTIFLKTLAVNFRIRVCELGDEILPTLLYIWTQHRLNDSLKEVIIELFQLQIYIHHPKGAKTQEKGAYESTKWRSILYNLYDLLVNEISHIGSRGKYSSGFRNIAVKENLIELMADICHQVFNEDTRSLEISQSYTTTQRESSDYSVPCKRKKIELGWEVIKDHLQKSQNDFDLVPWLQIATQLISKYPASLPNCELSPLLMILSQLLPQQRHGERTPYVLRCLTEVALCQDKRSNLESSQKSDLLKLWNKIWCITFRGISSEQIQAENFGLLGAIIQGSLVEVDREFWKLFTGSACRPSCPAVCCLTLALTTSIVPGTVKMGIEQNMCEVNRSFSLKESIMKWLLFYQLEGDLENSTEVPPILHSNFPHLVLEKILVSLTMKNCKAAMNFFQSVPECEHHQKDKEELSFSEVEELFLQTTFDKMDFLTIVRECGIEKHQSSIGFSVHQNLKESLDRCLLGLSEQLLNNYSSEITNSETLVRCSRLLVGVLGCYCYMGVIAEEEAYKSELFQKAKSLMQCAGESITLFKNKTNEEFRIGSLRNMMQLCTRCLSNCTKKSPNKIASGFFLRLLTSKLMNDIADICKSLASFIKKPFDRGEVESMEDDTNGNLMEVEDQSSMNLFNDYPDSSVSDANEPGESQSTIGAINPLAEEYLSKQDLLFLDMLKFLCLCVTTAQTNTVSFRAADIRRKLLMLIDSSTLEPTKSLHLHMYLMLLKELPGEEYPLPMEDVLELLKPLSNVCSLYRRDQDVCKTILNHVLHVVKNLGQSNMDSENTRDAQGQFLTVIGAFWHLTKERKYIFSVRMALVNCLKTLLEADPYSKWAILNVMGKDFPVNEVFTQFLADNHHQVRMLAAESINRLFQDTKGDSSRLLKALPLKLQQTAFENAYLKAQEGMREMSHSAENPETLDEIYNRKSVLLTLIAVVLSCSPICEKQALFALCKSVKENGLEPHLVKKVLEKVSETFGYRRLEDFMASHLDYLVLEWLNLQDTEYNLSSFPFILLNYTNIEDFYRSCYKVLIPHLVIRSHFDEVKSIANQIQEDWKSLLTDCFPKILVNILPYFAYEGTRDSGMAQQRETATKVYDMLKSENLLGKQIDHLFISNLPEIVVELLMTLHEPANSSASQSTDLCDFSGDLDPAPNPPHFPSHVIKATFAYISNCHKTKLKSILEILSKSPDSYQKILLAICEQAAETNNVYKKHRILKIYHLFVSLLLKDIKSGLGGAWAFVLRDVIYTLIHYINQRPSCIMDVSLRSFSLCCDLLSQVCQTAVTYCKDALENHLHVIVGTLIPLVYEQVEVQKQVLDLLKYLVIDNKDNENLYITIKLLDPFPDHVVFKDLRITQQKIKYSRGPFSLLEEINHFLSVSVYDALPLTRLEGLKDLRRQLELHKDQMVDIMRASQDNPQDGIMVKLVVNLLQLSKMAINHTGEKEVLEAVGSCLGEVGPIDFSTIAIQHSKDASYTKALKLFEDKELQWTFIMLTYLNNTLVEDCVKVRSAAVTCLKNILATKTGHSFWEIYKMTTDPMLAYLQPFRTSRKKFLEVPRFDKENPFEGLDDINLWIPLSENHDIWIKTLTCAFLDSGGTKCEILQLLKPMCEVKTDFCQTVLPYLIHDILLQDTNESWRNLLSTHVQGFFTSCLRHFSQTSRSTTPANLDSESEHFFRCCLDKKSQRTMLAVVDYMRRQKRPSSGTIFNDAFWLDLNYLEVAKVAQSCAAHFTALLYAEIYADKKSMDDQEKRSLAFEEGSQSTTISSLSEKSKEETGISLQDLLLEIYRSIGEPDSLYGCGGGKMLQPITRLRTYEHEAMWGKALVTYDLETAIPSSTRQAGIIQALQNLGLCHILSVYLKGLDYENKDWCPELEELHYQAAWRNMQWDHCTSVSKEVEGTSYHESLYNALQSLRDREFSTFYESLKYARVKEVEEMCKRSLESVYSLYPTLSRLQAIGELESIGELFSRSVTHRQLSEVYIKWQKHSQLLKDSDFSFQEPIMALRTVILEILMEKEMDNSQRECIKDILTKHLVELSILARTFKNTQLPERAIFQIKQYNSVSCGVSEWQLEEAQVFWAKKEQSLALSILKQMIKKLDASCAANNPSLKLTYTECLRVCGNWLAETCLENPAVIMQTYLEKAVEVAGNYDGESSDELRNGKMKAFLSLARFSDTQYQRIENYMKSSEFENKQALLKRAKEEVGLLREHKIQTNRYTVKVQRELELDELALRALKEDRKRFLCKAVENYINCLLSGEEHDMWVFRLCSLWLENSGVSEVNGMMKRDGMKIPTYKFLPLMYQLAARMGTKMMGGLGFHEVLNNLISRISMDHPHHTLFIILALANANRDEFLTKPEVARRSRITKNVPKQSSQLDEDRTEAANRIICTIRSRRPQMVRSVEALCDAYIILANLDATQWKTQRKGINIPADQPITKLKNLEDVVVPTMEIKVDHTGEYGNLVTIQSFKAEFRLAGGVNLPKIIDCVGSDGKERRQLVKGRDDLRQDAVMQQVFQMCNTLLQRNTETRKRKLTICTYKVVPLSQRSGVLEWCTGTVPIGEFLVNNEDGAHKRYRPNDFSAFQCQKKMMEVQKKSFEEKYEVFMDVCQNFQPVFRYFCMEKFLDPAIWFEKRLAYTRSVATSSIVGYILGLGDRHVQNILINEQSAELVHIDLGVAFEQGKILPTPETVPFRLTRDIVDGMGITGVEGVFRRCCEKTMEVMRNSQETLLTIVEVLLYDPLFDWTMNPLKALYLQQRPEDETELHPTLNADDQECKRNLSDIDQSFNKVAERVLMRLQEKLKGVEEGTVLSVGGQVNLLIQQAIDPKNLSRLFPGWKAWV
The test is described as follows: In vitro ATM inhibition assay (phosphorylation of GSTp53N66 on serine 15). It counts as biochemical. The method, then:
In vitro ATM inhibition Assays
In order to assess the inhibitory action of the compounds against ATM in vitro, the following assay was used to determine IC50 values.
ATM protein was immunoprecipitated from HeLa cell nuclear extract using rabbit polyclonal anti-sera raised to the C-terminal ˜500 amino-acid residues of the human ATM protein. The immunoprecipitation was performed according to the methodology described by Banin, S. et al. (1998). 10 μl of immunoprecipitated ATM in Buffer C (50 mM Hepes, pH 7.4, 6 mM MgCl2, 150 mM NaCl, 0.1 mM sodium orthovanadate, 4 mM MnCl2, 0.1 mM dithiothreitol, 10% glycerol) was added to 32.5 μl of buffer C containing 1 μg of the ATM substrate GSTp53N66 in a V-bottomed 96 well polypropylene plate. The GSTp53N66 substrate is the amino terminal 66 amino acid residues of human wild type p53 fused to glutathione S-transferase. ATM phosphorylates p53 on the residue serine 15 (Banin, S. et al. (1998)). Varying concentrations of inhibitor were then added. […] After 10 minutes of incubation at 37° C., the reactions were initiated by the addition of 5 μl of 500 μM Na-ATP. After 1 hour with shaking at 37° C., 150 μl of phosphate buffered saline (PBS) was added to the reaction and the plate centrifuged at 1500 rpm for 10 minutes. 5 μl of the reaction was then transferred to a 96 well opaque white plate containing 45 μl of PBS to allow the GSTp53N66 substrate to bind to the plate wells. The plate was covered and incubated at room temperature for 1 hour with shaking before discarding the contents. The plate wells were washed twice by the addition of PBS prior to the addition of 3% (w/v) bovine serum albumin (BSA) in PBS. The plate was incubated at room temperature for 1 hour with shaking before discarding the contents and washing twice with PBS. To the wells, 50 μl of a 1:10,000 dilution of primary phosphoserine-15 antibody (Cell Signaling Technology, #9284L) in 3% BSA/PBS was added to detect the phosphorylation event on the serine 15 residue of p53 elicited by the ATM kinase. After 1 hour of incubation at room temperature with shaking, the wells were washed four times with PBS prior to the addition of an anti-rabbit HRP conjugated secondary antibody (Pierce, 31462) with shaking for 1 hour at room temperature. The wells were then washed four times with PBS before the addition of chemiluminescence reagent (NEN Renaissance, NEL105). The plate was then shaken briefly, covered with a transparent plate seal and transferred to a TopCount NXT for chemiluminescent counting. Counts per second, following a one second counting time, were recorded for each reaction.
The enzyme activity for each compound is then calculated using the following equation: […]
What is called pIC50 is the negative decadic logarithm of the IC50, by convention in mol/L. Lower therefore signals a large IC50. On to `O=C(NCc1ccco1)c1ccc2c(c1)Sc1cccc(-c3cc(=O)cc(N4CCOCC4)o3)c1S2` [Compound 150], for which the pIC50 was above 6.70.

In the case of `O=c1cc(-c2cccc3c2Sc2ccccc2CC3)oc(N2CCOCC2)c1` [Compound 133, 2-(10,11-Dihydro-dibenzo[b,f]thiepin-4-yl)-6-morpholin-4-yl-pyran-4-one], the pIC50 was above 6.70.

Molecule `O=C(NCc1cccnc1)c1ccc2c(c1)Sc1cccc(-c3cc(=O)cc(N4CCOCC4)o3)c1S2` [Compound 171] gave a pIC50 above 6.70.

The molecule `CC(C)(C)OC(=O)Nc1ccc(-c2cc(=O)cc(N3CCOCC3)o2)c2c1Cc1ccccc1S2` [Compound 127] gave a pIC50 above 6.70.

`CC(=O)Oc1ccccc1C(=O)Nc1ccc(-c2cc(=O)cc(N3CCOCC3)o2)c2c1Cc1ccccc1S2` [Compound 109] gave a pIC50 above 6.70.

`CCN(CC)CCC(=O)Nc1ccc2c(c1)Cc1cccc(-c3cc(=O)cc(N4CCOCC4)o3)c1S2` [Compound 83]: the pIC50 was above 6.70.

With `O=C(Nc1ccc2c(c1)Cc1cccc(-c3cc(=O)cc(N4CCOCC4)o3)c1S2)c1cc(F)cc2c1OCOC2` [Compound 44], the pIC50 was above 6.70.

As for `C[C@@H]1CN(C(=O)c2ccc3c(c2)Sc2cccc(-c4cc(=O)cc(N5CCOCC5)o4)c2S3)C[C@H](C)O1` [Compound 159], the pIC50 is above 6.70.

For `O=C(CCNCCCN1CCOCC1)Nc1ccc2c(c1)Cc1cccc(-c3cc(=O)cc(N4CCOCC4)o3)c1S2` [Compound 80], the pIC50 was above 6.70.

`NCCC(=O)Nc1ccc2c(c1)Cc1cccc(-c3cc(=O)cc(N4CCOCC4)o3)c1S2` [Compound 84] gave a pIC50 above 6.70.

With `O=c1cc(-c2ccc(F)c3c2Sc2ccccc2C3)oc(N2CCOCC2)c1` [Compound 17, 2-(1-Fluoro-9H-thioxanthen-4-yl)-6-morpholin-4-yl-pyran-4-one], the pIC50 is above 6.70.

Molecule `COc1cc(C(=O)Nc2ccc3c(c2)Cc2cccc(-c4cc(=O)cc(N5CCOCC5)o4)c2S3)cc(OC)c1OC` [Compound 38] showed a negative logarithm of the IC50 (pIC50) above 6.70.

In turn, `CCCCNC(=O)c1ccc2c(c1)Sc1cccc(-c3cc(=O)cc(N4CCOCC4)o3)c1S2` [Compound 143] showed a pIC50 above 6.70.

`O=C(NCC1CCCCC1)c1ccc2c(c1)Sc1cccc(-c3cc(=O)cc(N4CCOCC4)o3)c1S2` [Compound 154] had a pIC50 above 6.70.

In turn, `CN1CCN(CC(=O)Nc2ccc3c(c2)Cc2cccc(-c4cc(=O)cc(N5CCOCC5)o4)c2S3)CC1` [Compound 53] had a pIC50 above 6.70.

Molecule `O=C(CCN(CCO)CCO)Nc1ccc2c(c1)Cc1cccc(-c3cc(=O)cc(N4CCOCC4)o3)c1S2` [Compound 72] showed a negative-log IC50 (pIC50) above 6.70.

Take `O=c1cc(-c2ccc(NS(=O)(=O)Cc3ccccc3)c3c2Sc2ccccc2C3)oc(N2CCOCC2)c1` [Compound 130]: the negative logarithm of the IC50 (pIC50) was above 6.70.

`O=C(CCN1CCNCC1)Nc1ccc2c(c1)Cc1cccc(-c3cc(=O)cc(N4CCOCC4)o3)c1S2` [Compound 70] gave a pIC50 above 6.70.

On to `O=C(NCCN1CCN(Cc2ccccc2)CC1)c1ccc2c(c1)Sc1cccc(-c3cc(=O)cc(N4CCOCC4)o3)c1S2` [Compound 179], for which the pIC50 was above 6.70.

With `CCN(CC)CCNC(=O)c1ccc2c(c1)Sc1cccc(-c3cc(=O)cc(N4CCOCC4)o3)c1S2` [Compound 181], the pIC50 was above 6.70.

Turning to `O=C(Nc1ccc(-c2cc(=O)cc(N3CCOCC3)o2)c2c1Cc1ccccc1S2)c1ccc2c(c1)OCO2` [Compound 115], the pIC50 is above 6.70.

In the case of `O=C(Nc1ccc(-c2cc(=O)cc(N3CCOCC3)o2)c2c1Cc1ccccc1S2)c1ccco1` [Compound 107], the pIC50 was above 6.70.

As for `O=C(Cc1cccs1)Nc1ccc2c(c1)Cc1cccc(-c3cc(=O)cc(N4CCOCC4)o3)c1S2` [Compound 31], the negative logarithm of the IC50 (pIC50) is above 6.70.

Turning to `CN1CCN(NC(=O)c2ccc3c(c2)Sc2cccc(-c4cc(=O)cc(N5CCOCC5)o4)c2S3)CC1` [Compound 164], the pIC50 was above 6.70.

For `CC(=O)N1CCC(C(=O)Nc2ccc3c(c2)Cc2cccc(-c4cc(=O)cc(N5CCOCC5)o4)c2S3)CC1` [Compound 36], the negative logarithm of the IC50 (pIC50) is above 6.70.

For `O=C(NCCN1CCCCC1)c1ccc2c(c1)Sc1cccc(-c3cc(=O)cc(N4CCOCC4)o3)c1S2` [Compound 166], the negative logarithm of the IC50 (pIC50) is above 6.70.

`O=c1cc(-c2ccccc2Sc2ccccc2)oc(N2CCOCC2)c1` [Compound 9, 2-(2-Phenylsulfanyl-phenyl)-6-morpholin-4-yl-pyran-4-one] had a pIC50 above 4.70.

In the case of `COC(=O)CCC(=O)Nc1ccc2c(c1)Cc1cccc(-c3cc(=O)cc(N4CCOCC4)o3)c1S2` [Compound 39], the pIC50 is above 6.70.

The molecule `O=c1cc(-c2ccc(F)c3c(=O)c4ccccc4sc23)oc(N2CCOCC2)c1` [Compound 13, 2-(1-Fluoro-9-oxo-9H-thioxanthen-4-yl)-6-morpholin-4-yl-pyran-4-one] had a pIC50 above 4.70.

In turn, `O=C(Nc1ccc2c(c1)Cc1cccc(-c3cc(=O)cc(N4CCOCC4)o3)c1S2)c1ccncc1` [Compound 28] gave a pIC50 above 6.70.

As to `O=C(NNC(=O)c1ccc2c(c1)Sc1cccc(-c3cc(=O)cc(N4CCOCC4)o3)c1S2)c1ccccc1` [Compound 162], the pIC50 is above 6.70.

For the molecule `O=C(O)CCC(=O)Nc1ccc2c(c1)Cc1cccc(-c3cc(=O)cc(N4CCOCC4)o3)c1S2` [Compound 48], the pIC50 was above 6.70.

With `CC(=O)OCC(=O)Nc1ccc2c(c1)Cc1cccc(-c3cc(=O)cc(N4CCOCC4)o3)c1S2` [Compound 40], the pIC50 is above 6.70.

As to `O=C(NCc1ccccn1)c1ccc2c(c1)Sc1cccc(-c3cc(=O)cc(N4CCOCC4)o3)c1S2` [Compound 170], the pIC50 is above 6.70.

`O=C(CCN1CCCNCC1)Nc1ccc2c(c1)Cc1cccc(-c3cc(=O)cc(N4CCOCC4)o3)c1S2` [Compound 78] had a negative logarithm of the IC50 (pIC50) above 6.70.

In turn, `Nc1ccc2c(c1)Cc1cccc(-c3cc(=O)cc(N4CCOCC4)o3)c1S2` [Compound 20, 2-(7-Amino-9H-thioxanthen-4-yl)-6-morpholin-4-yl-pyran-4-one] had a pIC50 above 6.70.

`CN(CCc1ccccn1)C(=O)c1ccc2c(c1)Sc1cccc(-c3cc(=O)cc(N4CCOCC4)o3)c1S2` [Compound 174] had a pIC50 above 6.70.

`O=c1cc(-c2ccc(O)c3c2Cc2ccccc2S3)oc(N2CCOCC2)c1` [Compound 87, 2-(4-Hydroxy-9H-thioxanthen-1yl)-6-morpholin-4-yl-pyran-4-one] gave a pIC50 above 6.70.

Consider `O=C(Nc1ccc2c(c1)Cc1cccc(-c3cc(=O)cc(N4CCOCC4)o3)c1S2)c1csc(-c2cccs2)n1` [Compound 46], for which the pIC50 is above 6.70.

Turning to `O=C(O)C1CC1C(=O)Nc1ccc2c(c1)Cc1cccc(-c3cc(=O)cc(N4CCOCC4)o3)c1S2` (centres unmarked) [Compound 49], the pIC50 is above 6.70.

`O=C(CCNCC1CCCO1)Nc1ccc2c(c1)Cc1cccc(-c3cc(=O)cc(N4CCOCC4)o3)c1S2` (centres unmarked) [Compound 86]: the pIC50 is above 6.70.

In turn, `O=C(CNCC1CCCO1)Nc1ccc2c(c1)Cc1cccc(-c3cc(=O)cc(N4CCOCC4)o3)c1S2` (centres unmarked) [Compound 68] had a pIC50 above 6.70.

`Cc1cc(C(=O)Nc2ccc3c(c2)Cc2cccc(-c4cc(=O)cc(N5CCOCC5)o4)c2S3)c(C)o1` [Compound 42]: the pIC50 was above 6.70.

`O=C(Nc1ccc(-c2cc(=O)cc(N3CCOCC3)o2)c2c1Cc1ccccc1S2)c1ccc(-c2ccccn2)s1` [Compound 110] showed a pIC50 above 6.70.

`CSc1ncccc1C(=O)Nc1ccc(-c2cc(=O)cc(N3CCOCC3)o2)c2c1Cc1ccccc1S2` [Compound 122] had a pIC50 above 6.70.

Regarding `CCN(CC)CCCNC(=O)c1ccc2c(c1)Sc1cccc(-c3cc(=O)cc(N4CCOCC4)o3)c1S2` [Compound 182], the pIC50 was above 6.70.

The molecule `O=C(Nc1ccc2c(c1)Cc1cccc(-c3cc(=O)cc(N4CCOCC4)o3)c1S2)c1ccco1` [Compound 27] had a negative logarithm of the IC50 (pIC50) above 6.70.

Take `Nc1ccc(-c2cc(=O)cc(N3CCOCC3)o2)c2c1Cc1ccccc1S2` [Compound 106, 2-(1-Amino-9H-thioxanthen-4-yl)-6-morpholin-4-yl-pyran-4-one]: the negative-log IC50 (pIC50) is above 6.70.

Turning to `N#Cc1cccc(NC(=O)Nc2ccc(-c3cc(=O)cc(N4CCOCC4)o3)c3c2Cc2ccccc2S3)c1` [Compound 117], the negative-log IC50 (pIC50) is above 6.70.

Turning to `O=C(Nc1ccc2c(c1)Cc1cccc(-c3cc(=O)cc(N4CCOCC4)o3)c1S2)c1ccc2c(c1)CCO2` [Compound 43], the negative-log IC50 (pIC50) was above 6.70.
